In patent publication US5434186A, “Carboxylic acid leukotriene B4 antagonists” (Hoffmann-La Roche Inc., priority 1993, dated 1995):
Where two headings read alike, the source gives them in different places.

Key:
[1] = system: LTB4 -induced bronchoconstriction; assay: Guinea Pig Bronchoconstriction In Vivo (LTB4-induced); set-up: species or system guinea pig (Hartley strain); settings: Cavia porcellus, iv, i.v. five minutes prior to LTB4 (1 μg/kg i.v.), read-out: ID50 (mg/kg), i.v., LTB4-induced bronchoconstriction
Description: Male guinea pigs (Hartley strain) weighing 300 to 500 g are anesthetized with urethane (2 g/kg) intraperitoneally and a polyethylene cannula is inserted into the jugular vein for drug administration. Tracheal pressure is recorded from a cannula inserted into the trachea and connected to a Gould P23ID pressure transducer. After surgical preparation of the animals, a period of time is allowed for pulmonary functions to stabilize. The test compound is administered intravenously five minutes prior to leukotriene B4 administration according to the following protocol: Animals are paralyzed with succinylcholine (1.2 mg/kg i.v.) and mechanically respirated (Harvard rodent respirator) at 40 breaths/minute and 2.5 cc tidal volume. Propranolol (0.1 mg/kg) is then administered intravenously one minute prior to leukotriene B4 administration. Animals are then challenged with an intermediate constrictory dose of leukotriene B4 (1 μg/kg) delivered intravenously.
The change (cm H2 O) between pre and peak ventilatory pressure readings is averaged for five control and five drug treated animals. The percent inhibition is calculated from the formula:
((Control-Drug Treated)/Control)×100
When representative compounds of formula I of the invention were utilized as the test compounds the following results were obtained: […]

[2] = system: LTB4 -induced skin inflammation; assay: LTB4 Induced Skin Inflammation (hairless guinea pig); format: in vivo; settings: for ED50: Cavia porcellus; for ID50, LTB4-induced skin inflammation, coinjection with LTB4: co-injection, 120 ng LTB4 intradermal
Description: Skin inflammation is induced in the hairless guinea pig by the intradermal injection of 50 μl Gey's salt solution/10% DMSO containing 120 ng LTB4. Injections are performed along the dorsal skin of the animals. Test compounds are administered at various times by co-injection, intravenous or oral administration. The test animals are euthanized four to six hours after the LTB4 injection and uniform skin punches are prepared from the injection sites. Punches are homogenized in 0.5% hexadecyltrimethyl ammonium bromide for one minute and centrifuged for 20 minutes at 14,000× g. Leukocyte accumulation is measured by assaying for myeloperoxidase activity in a kinetic assay using dimethoxybenzidine as the substrate. […] Skin injected with 120 ng LTB4 can show myeloperoxidase levels of 0.30-0.40 U/punch. LTB4 induced leukocyte accumulation is confirmed histologically in hematoxylin/eosin stained sections.

[3] = system: LTB4 -induced bronchoconstriction; assay: Guinea Pig Bronchoconstriction In Vivo (LTB4-induced); set-up: species or system guinea pig (Hartley strain); settings: Cavia porcellus, po, read-out: ID50 (mg/kg), p.o., LTB4-induced bronchoconstriction
[4] = system: myeloperoxidase activity in mucosal scrapings; assay: Acetic acid colitis (myeloperoxidase activity in mucosal scrapings); format: in vivo, Male Wistar rats; settings: rat, 10 mg/kg twice daily for 3 days, N=10
Description: Male Wistar rats, weighing 175-225 g, are pretreated with test compound at 10 mg/kg, twice daily for 3 days (72 hours) prior to the evaluation of colitis. Colitis is induced after 2 days (48 hours) with an enema of 2 ml of 3.5% acetic acid; the acetic acid is neutralized after 10 seconds by 3 ml of phosphate-buffered saline, pH 7.4. After 3 days (72 hours), animals are sacrificed and myeloperoxidase activity in mucosal scrapings is determined as described in the skin inflammation model. Myeloperoxidase levels are presented as Units/gm mucosa.

[5] = system: LTB4 mediated calcium fluxes in human neutrophils; assay: Calcium Flux Assay (inhibition of LTB4 mediated calcium fluxes in human neutrophils); format: cell-based; settings: Neutrophil; Fura2 labelled human neutrophils, 2.4 nM LTB4
Description: (§1) Human neutrophils are prepared from citrated or heparinized blood. The blood was diluted 1:1 with Hank's balanced salt solution (HBSS) minus calcium and magnesium and underlayed with 10 ml lymphocyte separation medium (Organon Teknika), followed by centrifugation at 500× g for 30 min., at room temperature. Supernatants are removed down to the red blood cell pellet. HBSS minus calcium and magnesium are added to give 25 ml. To this are added 25 ml 6% dextran in 0.85% NaCl. Samples are mixed and allowed to stand 20 min at room temperature. Supernatants are removed and centrifuged at 500× g for 5 min at 4° C. Pellets are resuspended with 20 ml 0.2% saline for 20 sec followed by the addition of 20 ml 1.6% saline. Samples are centrifuged at 500× g for 5 min at 4° C. The lysis is repeated and the cells (90-95% neutrophils) are resuspended at 2× 10^6 cell/ml in GEY's salt solution.
LTB4 induced changes in intracellular calcium concentration are measured using Fura2 labelled human neutrophils. Cells at a concentration of 2-5×10^6 /ml are labelled with 5 μM Fura2 for 30 minutes in Hank's balanced salt solution without calcium and magnesium. The cells are washed and resuspended at a final concentration of 1-2×10^7 cells/ml in Gey's solution. Calcium fluxes are initiated by the addition of 2.4 nM LTB4. Test compounds at appropriate concentrations are added to the cells just prior to the addition of LTB4. […] Fluorescence measurements are made in a Perkin Elmer model LS-5B spectrofluorimeter at a temperature setting of 37° C. Calcium concentrations are determined using the ratio method (ratio of cell fluorescence to media fluorescence).
When representative compounds of formula I of the invention were tested, the results set forth in Table H and expressed as inhibition of LTB4 mediated calcium fluxes in human neutrophils, were obtained.

LTB4 Receptor = target: T1, LTB4 Receptor (Homo sapiens, UniProt Q15722); assay: LTB4 Receptor Binding Assay (inhibition of 3H-LTB4 binding, human neutrophils); settings: 0.5 nM 3H-LTB4, 45 minutes on ice, isolated human neutrophils
T1 construct: Isolated human neutrophils in Gey's salt solution; endogenous in cells; host or cells: human neutrophils isolated from blood (90-95% neutrophils)
Description: Binding assays can be performed in microtiter wells. Isolated human neutrophils in Gey's salt solution are incubated on ice for 45 minutes with 0.5 nM ^3 H-LTB4 in the presence or absence of test compounds. Assays are terminated by adding 12 ml ice cold 50 mM Tris (pH 7.4) followed by rapid filtration under vacuum through GF/C filters. Radioactivity is determined by scintillation counting. Non specific binding is defined as the binding not displaced by 100 fold excess of unlabelled LTB4. Specific binding is defined as the difference between total binding and non-specific binding. Non linear analysis of the binding data is performed using LIGAND (Munson and Rodbard, 1980). Ki (Inhibition Constant) values were determined using the Cheng-Prusoff relationship (Cheng and Prusoff, 1973).
as §1

[6] = oral, read-out: ID50, LTB4-induced skin inflammation, oral route

T1 sequence (Q15722 whole entry): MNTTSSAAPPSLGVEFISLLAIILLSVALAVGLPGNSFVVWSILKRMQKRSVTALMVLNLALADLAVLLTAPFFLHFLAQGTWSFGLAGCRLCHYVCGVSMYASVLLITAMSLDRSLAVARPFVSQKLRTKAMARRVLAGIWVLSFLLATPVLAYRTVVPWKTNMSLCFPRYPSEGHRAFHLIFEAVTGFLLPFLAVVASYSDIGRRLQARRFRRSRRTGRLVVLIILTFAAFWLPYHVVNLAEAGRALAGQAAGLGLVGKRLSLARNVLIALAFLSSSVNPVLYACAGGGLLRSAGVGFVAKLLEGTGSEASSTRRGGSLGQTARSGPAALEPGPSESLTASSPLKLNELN

Row | Compound | ED50 [1] | ED50 [2, 6] | ID50, LTB4-induced skin inflammation, coinjection with LTB4 [2] | ED50 [3] | % inhibition (myeloperoxidase, acetic acid colitis) [4] | IC50 [5] | Ki (LTB4 Receptor) | ED50 ([2]; intravenous at the time of the intradermal LTB4 injection, read-out: ID50, LTB4-induced skin inflammation, intravenous administration)
1 | CCCc1c(OCCCCCCc2ccc(OCCCC(=O)O)cc2CCC(=O)O)ccc2c1OCCC2=O [Example 54, 5-(3-Carboxypropoxy)-2-[6-[(3,4-dihydro-4-oxo-8-propyl-2H-1-benzopyran-7-yl)oxy]hexyl]benzenepropanoic Acid] | 0.01 mg/kg | 5 mg/kg | 10 ng | 8.7 mg/kg | 68% | 2 nM |  | 
2 | CCCc1c(OCCCCCOc2ccc(C(=O)c3cccc(C(=O)O)c3)cc2CCC(=O)O)ccc2c1OCCC2=O [Example 20, 5-[(3-Carboxyphenyl)carbonyl]-2-[5-[(3,4-dihydro-4-oxo-8-propyl-2H-1-benzopyran-7-yl)oxy]pentyloxy]benzenepropanoic Acid] | 1.46 mg/kg | 30 mg/kg | 100 ng |  |  | 1 nM | 2 nM | 6 mg/kg
3 | CCCc1c(OCCCCCCc2cccc(OCCCCCC(=O)O)c2CCC(=O)O)ccc2c1OCCC2=O [Example 157, 2-[(5-Carboxypentyl)oxy]-6-[6-[(3,4-dihydro-4-oxo-8-propyl-2H-1-benzopyran-7-yl)oxy]hexyl]benzenepropanoic Acid] | 0.07 mg/kg |  |  | 0.27 mg/kg |  | 1 nM |  | 
4 | CCCc1c(OCCCCCCc2ccc(C(=O)c3cccc(C(=O)O)c3)cc2CCC(=O)O)ccc2c1OCCC2=O [Example 99, 5-[(3-Carboxyphenyl)carbonyl]-2-[6-[(3,4-dihydro-4-oxo-8-propyl-2H-1-benzopyran-7-yl)oxy]hexyl]benzenepropanoic Acid] |  |  | 20 ng |  |  |  | 1 nM | 
5 | CCCc1c(OCCCCCCc2cccc(OCCCCC(=O)O)c2CCC(=O)O)ccc2c1OCCC2=O [Example 126, 2-(4-Carboxybutoxy)-6-[6-[(3,4-dihydro-4-oxo-8-propyl-2H-1-benzopyran-7-yl)oxy]hexyl]benzenepropanoic Acid] | 0.12 mg/kg |  |  | 0.54 mg/kg |  | 2 nM |  | 
6 | CCCc1c(OCCCCCCc2cccc(OCCCCCO)c2CCC(=O)O)ccc2c1OCCC2=O [Example 180, 2-[6-[(3,4-Dihydro-4-oxo-8-propyl-2H-1-benzopyran-7-yl)oxy]hexyl]-6-[(5-hydroxypentyl)oxy]benzenepropanoic Acid] | 0.14 mg/kg |  |  | 4.8 mg/kg |  | 1 nM | 1 nM | 
7 | CCCc1c(OCCCCCCc2cccc(CCCCCC(=O)O)c2CCC(=O)O)ccc2c1OCCC2=O [Example 169, 2-(2-Carboxyethyl)-3-[6-[(3,4-dihydro-4-oxo-8-propyl-2H-1-benzopyran-7-yl)oxy]hexyl]benzenehexanoic Acid] | 0.13 mg/kg |  |  | 4.4 mg/kg |  | 1 nM | 1 nM | 
8 | CCCc1c(OCCCCCOc2cccc(OCCCCC(=O)O)c2CCC(=O)O)ccc2c1OCCC2=O [Example 62, 6-(4-Carboxybutoxy)-2-[5-[(3,4-dihydro-4-oxo-8-propyl-2H-1-benzopyran-7-yl)oxy]pentyloxy]benzenepropanoic Acid] | 2.06 mg/kg |  | 35 ng |  |  |  | 0.8 nM | 
9 | CCCc1c(OCCCCCOc2ccccc2CCC(=O)O)ccc2c1OCCC2=O [Example 4, 2-[5-[(3,4-Dihydro-4-oxo-8-propyl-2H-1-benzopyran-7-yl)oxy]pentyloxy]benzenepropanoic Acid] | 0.66 mg/kg |  |  | > 10 mg/kg |  | 26 nM |  | 
10 | CCCc1c(OCCCCCCc2cccc(OCC(=O)O)c2CCC(=O)O)ccc2c1OCCC2=O [Example 152, 2-(Carboxymethoxy)-6-[6-[(3,4-dihydro-4-oxo-8-propyl-2H-1-benzopyran-7-yl)oxy]hexyl]benzenepropanoic Acid] | 2 mg/kg |  |  |  |  | 3 nM | 1 nM | 
11 | CCCc1c(OCCCCCOc2ccc(C(=O)CCCC(=O)O)cc2CCC(=O)O)ccc2c1OCCC2=O [Example 87, 3-(2-Carboxyethyl)-4-[5-[(3,4-dihydro-4-oxo-8-propyl-2H-1-benzopyran-7-yl)oxy]pentyloxy]-δ-oxobenzenepentanoic Acid] | 4.41 mg/kg |  | 20 ng | > 10 mg/kg |  |  | 3 nM | 
